The text below walks through data of US6585954B1, “Method for searching steroid sulfatase inhibitors” (Kyowa Hakko Kogyo Co., Ltd., priority 1998, dated 2003).

Assay [1] has as its system tumor of transformed cell line carrying the introduced human steroid sulfatase gene (STS). In words: Effect of a steroid sulfatase inhibitor on estrone-3-sulfate-dependent tumor growth in nude mice (Example 5). The assay is classed as in vivo, BALB/c-nu/nu mice. Conditions: 0.1 mg/kg estrone-3-sulfate alone, subcutaneously for 22 days; by the 38th day. As for the experimental part:
The volume of a tumor can be calculated from the shorter diameter and the longer diameter of the tumor measured with slide calipers according to the following approximation formula.
Tumor volume=(longer diameter)×(shorter diameter)^2÷2
Animals in which the tumor growth was confirmed after administration of estrone-3-sulfate are selected, and a test compound is administered thereto. Then, the tumor volume is measured to estimate the steroid sulfatase-inhibiting activity of the test compound. The test compound may be administered by any of intravenous, subcutaneous, intraperitoneal and oral routes. The steroid sulfatase-inhibiting activity of the compound can be estimated by measuring the tumor volume at intervals of 3-4 days after the administration, and then comparing the tumor growth between the group to which only estrone-3-sulfate was administered and the group to which estrone-3-sulfate and the test compound were administered.
The cells were suspended at a concentration of 2×10^8 cells/ml and the suspension was mixed with an equal volume of matrigel-basement membrane (Becton & Dickinson). The resulting mixture was subcutaneously transplanted into 7- to 8-weeks-old female BALB/c-nu/nu mice, (nude mice, each group consisting of 5 mice) in an amount of 0.1 ml (1×10^7 cells). […]

The test system of assay [2] is transformed cell line carrying the introduced human steroid sulfatase gene (STS). The assay can be described thus: Tumor formation after transplantation of cells carrying an introduced steroid sulfatase gene (Example 4). Format: in vivo, BALB/c-nu/nu mice. Particulars: 0.1 mg/kg estrone-3-sulfate subcutaneously every day, after tumor growth stopped following estrogen preparation. From the text: First, cells carrying the introduced steroid sulfatase gene are transplanted into an animal such as a mouse for fixation to form a tumor. That is, tumor cells carrying the introduced steroid sulfatase gene are transplanted subcutaneously into an immunodeficient mouse, for example, a BALB/c-nu/nu (a nude mouse) or an SCID mouse in an amount of 1-5×10^6 cells to form a tumor. At the time of transplantation, a crude extract of basement membrane containing adhesion factor (e.g., matrigel-basement membrane, Becton & Dickinson) may be added in order to improve the fixation rate [Br. J. Cancer, 67, 953 (1993)]. In the case of estrogen-dependent breast cancer, the fixation rate is improved and the tumor growth after the fixation is promoted by administering an estrogen compound.
The cells were suspended at a concentration of 2×10^8 cells/ml and the suspension was mixed with an equal volume of matrigel-basement membrane (Becton & Dickinson). The resulting mixture was subcutaneously transplanted into 7- to 8-weeks-old female BALB/c-nu/nu mice, (nude mice, each group consisting of 5 mice) in an amount of 0.1 ml (1×10^7 cells). On the day of transplantation and 2 weeks later, an estrogen preparation (EP depo, Teikoku Zoki) was intramuscularly administered. […]

As to `C[C@]12CC[C@@H]3c4ccc(OS(=O)(=O)O)cc4CC[C@H]3[C@@H]1CCC2=O` [estrone-3-sulfate], the “tumor volume relative to the initial volume” value in assay [1] stood at 1.4 times the initial volume. In addition, the “tumor growth after administration” value in assay [2] is “the tumor grew in all mice and there was no reduction of tumor”.
